Assay results reported in publication PMC3814616, “BRAF inhibitors suppress apoptosis through off-target inhibition of JNK signaling” (eLife, 2013).

Legend:
[1] = molecular target: T1, STK39 (Homo sapiens, UniProt Q9UEW8); experiment: Quantitative competitive binding assay (KINOMEscan); conditions: for remaining binding at 0.05 µM: read-out: Percent control (50 nM); for remaining binding at 0.2 µM: read-out: Percent control (200 nM); for remaining binding at 1 µM: read-out: Percent control (1000 nM); for remaining binding at 10 µM: read-out: Percent control (10 μM)
T1 construct: purchased KINOMEscan (DiscoveRx), San Diego, CA

[2] = molecular target: T2, MEK3 (MAP2K3) (Homo sapiens, UniProt P46734); experiment: as above; conditions: for remaining binding at 0.05 µM: read-out: Percent control (50 nM); for remaining binding at 0.2 µM: read-out: Percent control (200 nM); for remaining binding at 1 µM: read-out: Percent control (1000 nM); for remaining binding at 10 µM: read-out: Percent control (10 μM)
T2 construct: purchased KINOMEscan (DiscoveRx), San Diego, CA

[3] = molecular target: T3, HPK1 (MAP4K1) (Homo sapiens, UniProt Q92918); experiment: as above; conditions: for remaining binding at 0.05 µM: read-out: Percent control (50 nM); for remaining binding at 0.2 µM: read-out: Percent control (200 nM); for remaining binding at 1 µM: read-out: Percent control (1000 nM); for remaining binding at 10 µM: read-out: Percent control (10 μM)
T3 construct: purchased KINOMEscan (DiscoveRx), San Diego, CA

[4] = molecular target: T4, FGR (Homo sapiens, UniProt P09769); experiment: as above; conditions: for IC50: estimated Kd, averaged pointwise estimates, transformed Hill equation, read-out: Calculated estimate of IC50; for remaining binding at 0.05 µM: read-out: Percent control (50 nM); for remaining binding at 0.2 µM: read-out: Percent control (200 nM); for remaining binding at 1 µM: read-out: Percent control (1000 nM); for remaining binding at 10 µM: read-out: Percent control (10 μM)
T4 construct: purchased KINOMEscan (DiscoveRx), San Diego, CA

[5] = molecular target: T5, MAP4K5 (Homo sapiens, UniProt Q9Y4K4); experiment: as above; conditions: for IC50: estimated Kd, averaged pointwise estimates, transformed Hill equation, read-out: Calculated estimate of IC50; for remaining binding at 0.05 µM: read-out: Percent control (50 nM); for remaining binding at 0.2 µM: read-out: Percent control (200 nM); for remaining binding at 1 µM: read-out: Percent control (1000 nM); for remaining binding at 10 µM: read-out: Percent control (10 μM)
T5 construct: purchased KINOMEscan (DiscoveRx), San Diego, CA

[6] = molecular target: T6, MAP3K4 (Homo sapiens, UniProt Q9Y6R4); experiment: as above; conditions: for remaining binding at 0.05 µM: read-out: Percent control (50 nM); for remaining binding at 0.2 µM: read-out: Percent control (200 nM); for remaining binding at 1 µM: read-out: Percent control (1000 nM); for remaining binding at 10 µM: read-out: Percent control (10 μM)
T6 construct: purchased KINOMEscan (DiscoveRx), San Diego, CA

[7] = molecular target: T7, OSR1 (OXSR1) (Homo sapiens, UniProt O95747); experiment: as above; conditions: for remaining binding at 0.05 µM: read-out: Percent control (50 nM); for remaining binding at 0.2 µM: read-out: Percent control (200 nM); for remaining binding at 1 µM: read-out: Percent control (1000 nM); for remaining binding at 10 µM: read-out: Percent control (10 μM)
T7 construct: purchased KINOMEscan (DiscoveRx), San Diego, CA

[8] = system: JNK and p38 isoforms; design: method as in Tsai et al., 2008; Bollag et al., 2010; conditions: ref Tsai et al., 2008; Bollag et al., 2010; cited from earlier work
[9] = molecular target: T8, MAP4K2 (Homo sapiens, UniProt Q12851); experiment: Quantitative competitive binding assay (KINOMEscan); conditions: for remaining binding at 0.05 µM: read-out: Percent control (50 nM); for remaining binding at 0.2 µM: read-out: Percent control (200 nM); for remaining binding at 1 µM: read-out: Percent control (1000 nM); for remaining binding at 10 µM: read-out: Percent control (10 μM)
T8 construct: purchased KINOMEscan (DiscoveRx), San Diego, CA
T8 sequence (Q12851 1-820): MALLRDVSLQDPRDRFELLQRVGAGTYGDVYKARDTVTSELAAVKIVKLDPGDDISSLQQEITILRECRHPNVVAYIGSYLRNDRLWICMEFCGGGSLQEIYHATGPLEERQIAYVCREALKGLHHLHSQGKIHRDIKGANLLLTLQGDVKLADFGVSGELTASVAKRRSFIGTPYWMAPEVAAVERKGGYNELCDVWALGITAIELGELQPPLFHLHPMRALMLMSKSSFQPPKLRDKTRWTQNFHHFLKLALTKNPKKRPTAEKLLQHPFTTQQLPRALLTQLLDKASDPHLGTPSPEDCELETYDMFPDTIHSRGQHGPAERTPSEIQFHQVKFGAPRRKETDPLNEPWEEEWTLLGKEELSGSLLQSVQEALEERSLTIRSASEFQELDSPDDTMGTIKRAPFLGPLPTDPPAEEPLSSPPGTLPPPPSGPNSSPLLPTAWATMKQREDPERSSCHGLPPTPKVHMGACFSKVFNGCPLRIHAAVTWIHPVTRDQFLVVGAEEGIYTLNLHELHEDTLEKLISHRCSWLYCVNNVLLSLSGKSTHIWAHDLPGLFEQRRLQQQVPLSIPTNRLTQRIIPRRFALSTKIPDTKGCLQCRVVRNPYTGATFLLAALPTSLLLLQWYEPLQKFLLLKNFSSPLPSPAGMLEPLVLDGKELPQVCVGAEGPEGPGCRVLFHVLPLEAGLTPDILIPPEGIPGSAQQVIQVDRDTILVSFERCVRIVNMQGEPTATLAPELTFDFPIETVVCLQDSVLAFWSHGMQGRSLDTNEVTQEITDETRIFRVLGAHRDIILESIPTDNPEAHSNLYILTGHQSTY

[10] = molecular target: T9, MAP3K2 (Homo sapiens, UniProt Q9Y2U5); experiment: as above; conditions: for remaining binding at 0.05 µM: read-out: Percent control (50 nM); for remaining binding at 0.2 µM: read-out: Percent control (200 nM); for remaining binding at 1 µM: read-out: Percent control (1000 nM); for remaining binding at 10 µM: read-out: Percent control (10 μM)
T9 construct: purchased KINOMEscan (DiscoveRx), San Diego, CA
T9 sequence (Q9Y2U5 1-619): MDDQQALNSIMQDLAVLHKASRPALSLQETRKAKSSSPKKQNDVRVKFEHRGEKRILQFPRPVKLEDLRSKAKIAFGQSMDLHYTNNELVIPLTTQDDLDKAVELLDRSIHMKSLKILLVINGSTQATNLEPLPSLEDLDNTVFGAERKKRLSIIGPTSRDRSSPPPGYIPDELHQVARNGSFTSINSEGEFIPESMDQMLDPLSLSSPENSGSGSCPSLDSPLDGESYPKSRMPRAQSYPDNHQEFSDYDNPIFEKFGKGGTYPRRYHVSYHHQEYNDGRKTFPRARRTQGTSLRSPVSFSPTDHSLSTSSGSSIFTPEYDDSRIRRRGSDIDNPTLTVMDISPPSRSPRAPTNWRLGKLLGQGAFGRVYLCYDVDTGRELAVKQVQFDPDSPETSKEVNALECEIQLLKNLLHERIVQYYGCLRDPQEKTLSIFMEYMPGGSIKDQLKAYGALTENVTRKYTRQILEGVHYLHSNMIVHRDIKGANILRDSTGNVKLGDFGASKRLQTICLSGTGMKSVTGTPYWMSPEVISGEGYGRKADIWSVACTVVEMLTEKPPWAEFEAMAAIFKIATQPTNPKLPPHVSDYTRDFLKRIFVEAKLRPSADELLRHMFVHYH

[11] = system: phospho-MKK4 and phospho-MKK7; experiment: Western blot, UV-induced phosphorylation of MKK4 and MKK7; conditions: cSCC cell lines, HaCaT, NHEK; 1 μM
[12] = molecular target: T10, RIPK1 (Homo sapiens, UniProt Q13546); experiment: Quantitative competitive binding assay (KINOMEscan); conditions: for remaining binding at 0.05 µM: read-out: Percent control (50 nM); for remaining binding at 0.2 µM: read-out: Percent control (200 nM); for remaining binding at 1 µM: read-out: Percent control (1000 nM); for remaining binding at 10 µM: read-out: Percent control (10 μM)
T10 construct: purchased KINOMEscan (DiscoveRx), San Diego, CA
T10 sequence (Q13546 whole entry): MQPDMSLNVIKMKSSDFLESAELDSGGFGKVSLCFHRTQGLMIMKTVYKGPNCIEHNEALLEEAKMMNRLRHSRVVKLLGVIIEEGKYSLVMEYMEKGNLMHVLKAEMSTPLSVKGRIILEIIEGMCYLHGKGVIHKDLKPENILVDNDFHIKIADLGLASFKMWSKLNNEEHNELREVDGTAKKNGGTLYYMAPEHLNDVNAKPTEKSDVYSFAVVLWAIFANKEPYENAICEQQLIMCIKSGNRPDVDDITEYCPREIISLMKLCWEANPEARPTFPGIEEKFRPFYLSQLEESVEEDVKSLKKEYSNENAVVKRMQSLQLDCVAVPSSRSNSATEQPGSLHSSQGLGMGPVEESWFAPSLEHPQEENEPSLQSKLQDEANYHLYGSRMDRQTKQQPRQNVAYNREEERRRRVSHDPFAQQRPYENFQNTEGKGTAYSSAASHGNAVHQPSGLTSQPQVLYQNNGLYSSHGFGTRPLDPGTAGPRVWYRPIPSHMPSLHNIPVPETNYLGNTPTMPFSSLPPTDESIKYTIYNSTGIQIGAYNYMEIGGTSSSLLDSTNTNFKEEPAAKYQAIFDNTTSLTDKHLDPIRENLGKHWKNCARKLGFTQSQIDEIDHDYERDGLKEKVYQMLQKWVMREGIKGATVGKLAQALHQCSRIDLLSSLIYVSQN

T2 sequence (P46734 whole entry): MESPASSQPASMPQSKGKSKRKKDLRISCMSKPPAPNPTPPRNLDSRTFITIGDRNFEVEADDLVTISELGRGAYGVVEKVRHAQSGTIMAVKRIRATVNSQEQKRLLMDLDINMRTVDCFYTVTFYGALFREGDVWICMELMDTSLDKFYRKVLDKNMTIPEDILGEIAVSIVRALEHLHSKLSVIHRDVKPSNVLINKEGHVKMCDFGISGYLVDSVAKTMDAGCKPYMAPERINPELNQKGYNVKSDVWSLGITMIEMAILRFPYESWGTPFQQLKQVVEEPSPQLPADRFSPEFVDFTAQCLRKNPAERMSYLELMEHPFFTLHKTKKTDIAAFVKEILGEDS
T6 sequence (Q9Y6R4 whole entry): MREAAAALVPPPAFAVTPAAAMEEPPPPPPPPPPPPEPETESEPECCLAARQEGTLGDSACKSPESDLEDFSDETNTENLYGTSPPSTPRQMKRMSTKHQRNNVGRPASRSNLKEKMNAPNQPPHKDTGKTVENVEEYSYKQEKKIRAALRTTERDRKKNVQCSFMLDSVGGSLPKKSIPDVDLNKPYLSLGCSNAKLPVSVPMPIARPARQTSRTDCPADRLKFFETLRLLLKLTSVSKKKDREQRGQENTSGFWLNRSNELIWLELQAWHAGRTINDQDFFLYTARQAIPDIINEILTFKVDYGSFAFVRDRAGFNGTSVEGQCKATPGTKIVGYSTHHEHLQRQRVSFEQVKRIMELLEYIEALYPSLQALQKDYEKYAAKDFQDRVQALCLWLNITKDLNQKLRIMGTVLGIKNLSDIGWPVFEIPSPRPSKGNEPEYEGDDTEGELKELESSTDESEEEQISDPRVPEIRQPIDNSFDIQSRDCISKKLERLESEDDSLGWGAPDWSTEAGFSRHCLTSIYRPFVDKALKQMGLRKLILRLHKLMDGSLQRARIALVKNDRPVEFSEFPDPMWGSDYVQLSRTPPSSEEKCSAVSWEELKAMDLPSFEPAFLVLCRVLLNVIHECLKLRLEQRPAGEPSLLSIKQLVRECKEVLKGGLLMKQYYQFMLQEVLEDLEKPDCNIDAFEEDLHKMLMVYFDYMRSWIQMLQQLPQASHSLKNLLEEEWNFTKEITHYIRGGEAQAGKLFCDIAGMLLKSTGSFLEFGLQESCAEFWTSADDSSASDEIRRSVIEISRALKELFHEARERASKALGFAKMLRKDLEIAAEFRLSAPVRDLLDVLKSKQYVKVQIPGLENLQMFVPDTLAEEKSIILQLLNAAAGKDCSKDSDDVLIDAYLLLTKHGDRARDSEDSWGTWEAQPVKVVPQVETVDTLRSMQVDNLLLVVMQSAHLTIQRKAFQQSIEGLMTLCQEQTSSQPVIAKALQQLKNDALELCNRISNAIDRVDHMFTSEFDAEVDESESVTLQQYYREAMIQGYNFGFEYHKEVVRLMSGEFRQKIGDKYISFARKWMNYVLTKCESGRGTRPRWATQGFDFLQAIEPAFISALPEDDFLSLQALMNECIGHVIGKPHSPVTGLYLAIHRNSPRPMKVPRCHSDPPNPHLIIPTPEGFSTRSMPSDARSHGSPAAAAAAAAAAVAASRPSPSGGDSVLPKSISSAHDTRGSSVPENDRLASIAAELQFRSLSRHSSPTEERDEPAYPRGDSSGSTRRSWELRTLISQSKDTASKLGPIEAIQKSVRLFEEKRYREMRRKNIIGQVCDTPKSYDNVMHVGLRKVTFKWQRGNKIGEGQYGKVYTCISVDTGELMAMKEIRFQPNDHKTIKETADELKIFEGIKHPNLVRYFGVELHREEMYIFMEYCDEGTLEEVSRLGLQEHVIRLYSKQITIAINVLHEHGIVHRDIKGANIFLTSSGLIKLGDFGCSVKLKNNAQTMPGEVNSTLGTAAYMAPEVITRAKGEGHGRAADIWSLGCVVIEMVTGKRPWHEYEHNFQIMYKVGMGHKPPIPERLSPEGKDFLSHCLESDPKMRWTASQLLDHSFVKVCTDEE
T5 sequence (Q9Y4K4 whole entry): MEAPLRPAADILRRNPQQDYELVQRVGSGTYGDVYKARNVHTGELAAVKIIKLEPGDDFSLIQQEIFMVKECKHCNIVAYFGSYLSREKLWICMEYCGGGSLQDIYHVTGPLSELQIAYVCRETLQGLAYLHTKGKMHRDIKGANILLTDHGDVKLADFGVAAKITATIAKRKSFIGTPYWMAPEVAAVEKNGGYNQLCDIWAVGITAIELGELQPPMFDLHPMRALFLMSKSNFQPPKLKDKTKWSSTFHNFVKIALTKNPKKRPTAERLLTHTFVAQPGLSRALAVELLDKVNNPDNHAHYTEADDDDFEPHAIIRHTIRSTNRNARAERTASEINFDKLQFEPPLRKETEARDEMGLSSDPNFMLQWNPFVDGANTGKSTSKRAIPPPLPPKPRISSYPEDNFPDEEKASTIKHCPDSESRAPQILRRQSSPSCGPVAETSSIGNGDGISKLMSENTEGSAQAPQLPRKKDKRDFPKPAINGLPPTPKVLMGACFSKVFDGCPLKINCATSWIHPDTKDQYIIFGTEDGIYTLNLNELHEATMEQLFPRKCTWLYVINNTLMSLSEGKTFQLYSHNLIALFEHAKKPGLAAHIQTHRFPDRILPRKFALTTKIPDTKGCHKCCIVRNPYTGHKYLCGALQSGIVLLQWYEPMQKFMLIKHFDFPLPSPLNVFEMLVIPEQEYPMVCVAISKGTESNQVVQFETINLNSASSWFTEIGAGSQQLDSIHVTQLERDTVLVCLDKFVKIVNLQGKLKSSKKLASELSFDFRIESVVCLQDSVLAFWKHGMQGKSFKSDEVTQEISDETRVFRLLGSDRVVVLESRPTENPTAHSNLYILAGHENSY
T4 sequence (P09769 whole entry): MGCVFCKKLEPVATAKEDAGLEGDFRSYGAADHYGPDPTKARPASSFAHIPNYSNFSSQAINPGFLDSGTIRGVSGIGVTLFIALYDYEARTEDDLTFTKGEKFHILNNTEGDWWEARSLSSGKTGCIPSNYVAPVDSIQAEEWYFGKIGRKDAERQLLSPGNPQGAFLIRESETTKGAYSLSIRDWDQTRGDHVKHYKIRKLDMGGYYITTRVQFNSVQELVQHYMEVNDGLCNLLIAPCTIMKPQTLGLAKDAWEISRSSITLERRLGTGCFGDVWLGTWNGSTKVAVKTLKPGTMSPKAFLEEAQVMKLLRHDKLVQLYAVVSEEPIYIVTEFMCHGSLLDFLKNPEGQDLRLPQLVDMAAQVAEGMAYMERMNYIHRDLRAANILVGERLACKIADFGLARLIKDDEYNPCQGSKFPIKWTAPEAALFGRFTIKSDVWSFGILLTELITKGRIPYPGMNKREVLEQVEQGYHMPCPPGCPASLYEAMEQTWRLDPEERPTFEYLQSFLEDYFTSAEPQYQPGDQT
T7 sequence (O95747 whole entry): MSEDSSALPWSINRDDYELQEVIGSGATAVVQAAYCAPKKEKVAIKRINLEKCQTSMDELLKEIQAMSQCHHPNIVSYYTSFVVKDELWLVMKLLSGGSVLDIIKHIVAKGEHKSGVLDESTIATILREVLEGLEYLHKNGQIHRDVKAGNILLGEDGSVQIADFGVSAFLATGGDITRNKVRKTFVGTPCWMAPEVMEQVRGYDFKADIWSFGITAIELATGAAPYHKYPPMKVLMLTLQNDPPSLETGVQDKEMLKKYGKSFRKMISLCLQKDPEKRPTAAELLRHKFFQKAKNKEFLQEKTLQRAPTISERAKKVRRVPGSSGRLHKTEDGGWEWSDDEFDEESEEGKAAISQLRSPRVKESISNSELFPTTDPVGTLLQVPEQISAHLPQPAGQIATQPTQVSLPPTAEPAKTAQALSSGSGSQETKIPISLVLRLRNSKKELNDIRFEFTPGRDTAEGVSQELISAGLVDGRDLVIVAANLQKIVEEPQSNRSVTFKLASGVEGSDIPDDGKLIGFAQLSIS

Question: What does the source list for `CCCS(=O)(=O)Nc1ccc(F)c(C(=O)c2c[nH]c3ncc(Cl)cc23)c1F` [PLX4720]?
Answer: remaining binding at 0.05 µM [1]: 100%; remaining binding at 0.2 µM [1]: 100%; remaining binding at 1 µM [1]: 100%; remaining binding at 10 µM [1]: 59%; remaining binding at 0.05 µM [2]: 100%; remaining binding at 0.2 µM [2]: 100%; remaining binding at 1 µM [2]: 100%; remaining binding at 10 µM [2]: 64%; remaining binding at 0.05 µM [3]: 100%; remaining binding at 0.2 µM [3]: 100%; remaining binding at 1 µM [3]: 100%; remaining binding at 10 µM [3]: 47%; IC50 [4]: 153 nM; remaining binding at 0.05 µM [4]: 69%; remaining binding at 0.2 µM [4]: 38%; remaining binding at 1 µM [4]: 11%; remaining binding at 10 µM [4]: 2.5%; IC50 [5]: 1260 nM; remaining binding at 0.05 µM [5]: 96%; remaining binding at 0.2 µM [5]: 100%; remaining binding at 1 µM [5]: 63%; remaining binding at 10 µM [5]: 8%; remaining binding at 0.05 µM [6]: 100%; remaining binding at 0.2 µM [6]: 100%; remaining binding at 1 µM [6]: 100%; remaining binding at 10 µM [6]: 65%; remaining binding at 0.05 µM [7]: 100%; remaining binding at 0.2 µM [7]: 94%; remaining binding at 1 µM [7]: 95%; remaining binding at 10 µM [7]: 42%; direct inhibition of JNK and p38 isoforms [8]: not significantly inhibited; remaining binding at 0.05 µM [9]: 98%; remaining binding at 0.2 µM [9]: 100%; remaining binding at 1 µM [9]: 99%; remaining binding at 10 µM [9]: 67%; remaining binding at 0.05 µM [10]: 100%; remaining binding at 0.2 µM [10]: 93%; remaining binding at 1 µM [10]: 87%; remaining binding at 10 µM [10]: 41%; UV-induced phosphorylation of MKK4 and MKK7 [11]: inhibited; remaining binding at 0.05 µM [12]: 99%; remaining binding at 0.2 µM [12]: 87%; remaining binding at 1 µM [12]: 85%; remaining binding at 10 µM [12]: 50%

Question: Which remaining binding at 0.05 µM [1] does the source give for `CCCS(=O)(=O)Nc1ccc(F)c(C(=O)c2c[nH]c3ncc(-c4ccc(Cl)cc4)cc23)c1F` [vemurafenib] here?
Answer: 100%

Question: And the remaining binding at 0.2 µM [1]?
Answer: 100%

Question: What about the remaining binding at 1 µM [1] of the same compound?
Answer: 97%

Question: And the remaining binding at 10 µM [1]?
Answer: 66%

Question: What about the remaining binding at 0.05 µM [2] of the same compound?
Answer: 100%

Question: What about the remaining binding at 0.2 µM [2] of the same compound?
Answer: 96%

Question: What about the remaining binding at 1 µM [2] of the same compound?
Answer: 98%

Question: What about the remaining binding at 10 µM [2] of the same compound?
Answer: 54%

Question: What about the remaining binding at 0.05 µM [3] of the same compound?
Answer: 95%

Question: What about the remaining binding at 0.2 µM [3] of the same compound?
Answer: 88%

Question: And the remaining binding at 1 µM [3]?
Answer: 67%

Question: What about the remaining binding at 10 µM [3] of the same compound?
Answer: 15%

Question: What about the IC50 [4] of the same compound?
Answer: 149 nM

Question: And the remaining binding at 0.05 µM [4]?
Answer: 65%

Question: What about the remaining binding at 0.2 µM [4] of the same compound?
Answer: 49%

Question: What about the remaining binding at 1 µM [4] of the same compound?
Answer: 13%

Question: What about the remaining binding at 10 µM [4] of the same compound?
Answer: 1.6%

Question: And the IC50 [5]?
Answer: 58.2 nM

Question: What about the remaining binding at 0.05 µM [5] of the same compound?
Answer: 62%

Question: What about the remaining binding at 0.2 µM [5] of the same compound?
Answer: 33%

Question: And the remaining binding at 1 µM [5]?
Answer: 4.1%

Question: What about the remaining binding at 10 µM [5] of the same compound?
Answer: 0.1%

Question: And the remaining binding at 0.05 µM [6]?
Answer: 95%

Question: And the remaining binding at 0.2 µM [6]?
Answer: 92%

Question: What about the remaining binding at 1 µM [6] of the same compound?
Answer: 87%

Question: What about the remaining binding at 10 µM [6] of the same compound?
Answer: 46%

Question: And the remaining binding at 0.05 µM [7]?
Answer: 100%

Question: What about the remaining binding at 0.2 µM [7] of the same compound?
Answer: 100%

Question: What about the remaining binding at 1 µM [7] of the same compound?
Answer: 89%

Question: What about the remaining binding at 10 µM [7] of the same compound?
Answer: 98%

Question: What about the “direct inhibition of JNK and p38 isoforms” value [8] of the same compound?
Answer: not significantly inhibited

Question: What about the remaining binding at 0.05 µM [9] of the same compound?
Answer: 99%

Question: And the remaining binding at 0.2 µM [9]?
Answer: 82%

Question: And the remaining binding at 1 µM [9]?
Answer: 95%

Question: What about the remaining binding at 10 µM [9] of the same compound?
Answer: 46%

Question: And the remaining binding at 0.05 µM [10]?
Answer: 91%

Question: And the remaining binding at 0.2 µM [10]?
Answer: 91%

Question: And the remaining binding at 1 µM [10]?
Answer: 89%

Question: And the remaining binding at 10 µM [10]?
Answer: 83%

Question: And the “UV-induced phosphorylation of MKK4 and MKK7” value [11]?
Answer: suppressed

Question: What about the remaining binding at 0.05 µM [12] of the same compound?
Answer: 92%

Question: And the remaining binding at 0.2 µM [12]?
Answer: 100%

Question: What about the remaining binding at 1 µM [12] of the same compound?
Answer: 99%

Question: What about the remaining binding at 10 µM [12] of the same compound?
Answer: 73%
